From paper PMC9776540, “Therapeutic Potential of a Water-Soluble Silver-Diclofenac Coordination Polymer on 3D Pancreatic Cancer Spheroids” (Journal of Medicinal Chemistry, 2022)
Counter-ions that a name gives are not always drawn.

Legend:
[1] = comparison values, no method or reference printed at the place; cited from earlier work
[2] = system: A549; test: MTT survival test, surviving fraction (Table S3); assay type: cell-based, human
Procedure: (§1) 24, and 72 h. After each incubation time, the cells were washed with PBS. Then, fresh medium (supplemented with 10% FSB) was added, and the cells were incubated under standard conditions for another 24 h (6h + 24h, 24h + 24h, 72h + 24h). After this time, the MTT survival test was done. Surviving fraction given in % was estimated with relation to untreated cells. In the case of 6h + 24h and 24h + 24h approaches, the cells were seeded at 10 000 cells per well, while in the case of 72h + 24h at […]

[3] = system: MCF-7; test: MTT survival test, surviving fraction (Table S3); assay type: cell-based, human
Procedure: as §1

[4] = system: HaCat; test: MTT survival test, surviving fraction (Table S3); assay type: cell-based, human
Procedure: as §1

[5] = system: PANC-1; test: MTT survival test, surviving fraction (Table S3); assay type: cell-based, human
Procedure: as §1

[6] = system: DU-145; test: MTT survival test, surviving fraction (Table S3); assay type: cell-based, human
Procedure: as §1

[7] = system: A549; test: MTT cytotoxicity assay (IC50); assay type: cell-based, human; conditions: Homo sapiens; A549, after 72 h incubation, MTT, vs untreated control cells; read-out: IC50
Procedure: (§2) MCF7 cell line (human breast adenocarcinoma, morphology: epithelial-like, ATCC: HTB-22), A549 cell […]
(§3) keratinocyte, morphology: epidermal, CSL Cell Lines Service GmbH); were cultured in Dulbecco’s Modified Eagle’s Medium (DMEM, Corning) with phenol red, supplemented with 10% fetal bovine serum (FBS) and with 1% streptomycin/penicillin. […]
(§4) from metastatic site: brain, ATCC: HTB-81) and MCR-5 cell line (primary line of human pulmonary […]
(§5) 10% fetal bovine serum (FBS). Cultures were incubated at 37 °C under a humidified atmosphere containing 5% CO2. Cells were transferred using a solution containing 0.05% trypsin and 0.5 mM EDTA.
(§6) All media and other ingredients were purchased from ALAB, Poland.
(§7) Cytotoxicity was assessed by MTT assay performed according the protocols described elsewhere.S1 In brief, 1×10^4 cells per well, seeded in 96-well flat bottom microtiter plate, were incubated with the tested compounds (in the appropriate media) at various range of concentrations for 24 h. After that time, solutions of compounds were washed out, cells were washed three times with PBS and fresh medium was applied. After next 72 h cell viability was determined using the Hill equation (Origin 9.0) with regard to the untreated cells (control), where y0 – untreated cell control (which was set to 100% viability), y100 – a lysis control (where the cells were treated with 0.5% triton X-100 was set to 0% […]
(§8) [c] at which the viability of the cells reaches 50%, H – the Hill coefficient (describing cooperativity):
(§9) Each compound concentration was tested in five replicates and repeated at least three times.
(§10) Determined values of IC50 are given as mean + S.D. (Standard Deviation).
(§11) Cisplatin was tested as a reference anticancer drug. […]

[8] = system: MRC5; test: MTT cytotoxicity assay (IC50); assay type: cell-based, human; conditions: Homo sapiens; MRC5 normal cells, after 72 h incubation, MTT, vs untreated control cells; read-out: IC50
Procedure: as §2, §3, §4, §5, §6, §7, §8, §9, §10, §11

[9] = system: MCF7; test: MTT cytotoxicity assay (IC50); assay type: cell-based, human; conditions: Homo sapiens; MCF7, after 72 h incubation, MTT, vs untreated control cells; read-out: IC50
Procedure: as §2, §3, §4, §5, §6, §7, §8, §9, §10, §11

[10] = system: HaCat; test: MTT cytotoxicity assay (IC50); assay type: cell-based, human; conditions: Homo sapiens; HaCat normal cells, after 72 h incubation, MTT, vs untreated control cells; read-out: IC50
Procedure: as §2, §3, §4, §5, §6, §7, §8, §9, §10, §11

[11] = system: PANC-1; test: MTT cytotoxicity assay (IC50); assay type: cell-based, human; conditions: Homo sapiens; PANC-1, after 72 h incubation, MTT, vs untreated control cells; read-out: IC50
Procedure: as §2, §3, §4, §5, §6, §7, §8, §9, §10, §11

[12] = system: DU-145; test: MTT cytotoxicity assay (IC50); assay type: cell-based, human; conditions: Homo sapiens; DU-145, after 72 h incubation, MTT, vs untreated control cells; read-out: IC50
Procedure: as §2, §3, §4, §5, §6, §7, §8, §9, §10, §11

[13] = system: PANC-1 cells; conditions: PANC-1, 1 at IC50, others at molar ratio 1:1:1, 72 h after treatment
Procedure: as §2, §3, §4, §5
All media and other ingredients were purchased from ALAB, Poland. […]
Acridine Orange (OA) and Propidium Iodide PI Staining
AO is a nucleic acid-binding fluorophore that is cell membrane permeable and suitable for selective staining of nucleated living cells. PI is a nucleic acid-binding dye that is impermeable to live cells and suitable for staining dead or dying nucleated cells. All live, nucleated cells fluoresce green due to AO, and dead, nucleated cells are stained with both AO and PI and fluoresce red. For analysis of 1-induced

[14] = system: pBR322 plasmid; test: DNA strand break analysis, agarose gel electrophoresis; assay type: biochemical; conditions: pBR322, 24 h, even at high concentration (500 μM)
Procedure: Then, the interaction between DNA and diclofenac, PTA, or 1 was evaluated by the gel electrophoresis of pBR322 plasmid to determine an ability to cause double- and/or single-strand DNA damages (Figure 6D). The double-strand damage may result in the appearance of different forms of DNA (linear form III and relaxed form II), which can be quantified by densitometry analysis (Figure 6E).
DNA Strand Break Analysis
The ability of 1, PTA and diclofenac to induce single- or double-strand breaks in plasmid DNA was tested
with the pBR322 plasmid (c = 0.5 mg/mL). All compounds were dissolved in water (c = 1 µM-500 µM).
After 1 h incubation at 37 °C, the reaction mixtures (20 μL) were mixed with 3 μL of loading buffer
(bromophenol blue in 30% glycerol) and loaded on 1% agarose gels, containing EB, in TBE buffer (90
mM Tris–borate, 20 mM EDTA, pH = 8.0). Gel electrophoresis was performed at a constant voltage of
100 V (4 V/cm) for 60 min. The gel was photographed and processed with a Digital Imaging System
(Syngen Biotech). For the densitometric analysis the UltraQuant 6.0 program was used.

## O=C(O)Cc1ccccc1Nc1c(Cl)cccc1Cl [NaDf, diclofenac sodium salt]
[1]
  log P: 1.4
[2]; A549, 6h + 24h, dil. 10 000x (stocks: diclofenac 0.918, PTA 0.483, AgNO3 0.326 mg/mL)
  surviving fraction: 99.7 ± 4.3%
[2]; A549, 6h + 24h, dil. 100x (stocks: diclofenac 0.918, PTA 0.483, AgNO3 0.326 mg/mL)
  surviving fraction: 72.5 ± 6.8%
[2]; A549, 6h + 24h, dil. 1000x (stocks: diclofenac 0.918, PTA 0.483, AgNO3 0.326 mg/mL)
  surviving fraction: 88.7 ± 10.8%
[2]; A549, 24h + 24h, dil. 10 000x (stocks: diclofenac 0.918, PTA 0.483, AgNO3 0.326 mg/mL)
  surviving fraction: 98.5 ± 10.9%
[2]; A549, 24h + 24h, dil. 100x (stocks: diclofenac 0.918, PTA 0.483, AgNO3 0.326 mg/mL)
  surviving fraction: 70.9 ± 8.9%
[2]; A549, 24h + 24h, dil. 1000x (stocks: diclofenac 0.918, PTA 0.483, AgNO3 0.326 mg/mL)
  surviving fraction: 81.8 ± 6.8%
[2]; A549, 72h + 24h, dil. 10 000x (stocks: diclofenac 0.918, PTA 0.483, AgNO3 0.326 mg/mL)
  surviving fraction: 89.5 ± 8.2%
[2]; A549, 72h + 24h, dil. 100x (stocks: diclofenac 0.918, PTA 0.483, AgNO3 0.326 mg/mL)
  surviving fraction: 67.7 ± 6.5%
[2]; A549, 72h + 24h, dil. 1000x (stocks: diclofenac 0.918, PTA 0.483, AgNO3 0.326 mg/mL)
  surviving fraction: 78.5 ± 7.6%
[3]; MCF-7, 6h + 24h, dil. 10 000x (stocks: diclofenac 0.918, PTA 0.483, AgNO3 0.326 mg/mL)
  surviving fraction: 102.6 ± 13.4%
[3]; MCF-7, 6h + 24h, dil. 100x (stocks: diclofenac 0.918, PTA 0.483, AgNO3 0.326 mg/mL)
  surviving fraction: 78.6 ± 12.3%
[3]; MCF-7, 6h + 24h, dil. 1000x (stocks: diclofenac 0.918, PTA 0.483, AgNO3 0.326 mg/mL)
  surviving fraction: 89.5 ± 9.8%
[3]; MCF-7, 24h + 24h, dil. 10 000x (stocks: diclofenac 0.918, PTA 0.483, AgNO3 0.326 mg/mL)
  surviving fraction: 98.2 ± 9.8%
[3]; MCF-7, 24h + 24h, dil. 1000x (stocks: diclofenac 0.918, PTA 0.483, AgNO3 0.326 mg/mL)
  surviving fraction: 88.7 ± 10.6%
[3]; MCF-7, 72h + 24h, dil. 10 000x (stocks: diclofenac 0.918, PTA 0.483, AgNO3 0.326 mg/mL)
  surviving fraction: 97.8 ± 7.7%
[3]; MCF-7, 72h + 24h, dil. 1000x (stocks: diclofenac 0.918, PTA 0.483, AgNO3 0.326 mg/mL)
  surviving fraction: 85.4 ± 5.3%
[4]; 6h + 24h, dil. 10 000x (stocks: diclofenac 0.918, PTA 0.483, AgNO3 0.326 mg/mL)
  surviving fraction: 99.6 ± 10.8%
[4]; 6h + 24h, dil. 100x (stocks: diclofenac 0.918, PTA 0.483, AgNO3 0.326 mg/mL)
  surviving fraction: 86.5 ± 11.7%
[4]; 6h + 24h, dil. 1000x (stocks: diclofenac 0.918, PTA 0.483, AgNO3 0.326 mg/mL)
  surviving fraction: 92.5 ± 9.1%
[4]; 24h + 24h, dil. 10 000x (stocks: diclofenac 0.918, PTA 0.483, AgNO3 0.326 mg/mL)
  surviving fraction: 99.3 ± 12.8%
[4]; 24h + 24h, dil. 100x (stocks: diclofenac 0.918, PTA 0.483, AgNO3 0.326 mg/mL)
  surviving fraction: 88.8 ± 5.8%
[4]; 24h + 24h, dil. 1000x (stocks: diclofenac 0.918, PTA 0.483, AgNO3 0.326 mg/mL)
  surviving fraction: 99.2 ± 6.8%
[4]; 72h + 24h, dil. 10 000x (stocks: diclofenac 0.918, PTA 0.483, AgNO3 0.326 mg/mL)
  surviving fraction: 102.3 ± 11.2%
[4]; 72h + 24h, dil. 100x (stocks: diclofenac 0.918, PTA 0.483, AgNO3 0.326 mg/mL)
  surviving fraction: 88.4 ± 5.2%
[4]; 72h + 24h, dil. 1000x (stocks: diclofenac 0.918, PTA 0.483, AgNO3 0.326 mg/mL)
  surviving fraction: 99.2 ± 5.9%
[5]; PANC-1, 6h + 24h, dil. 10 000x (stocks: diclofenac 0.918, PTA 0.483, AgNO3 0.326 mg/mL)
  surviving fraction: 98.6 ± 7.8%
[5]; PANC-1, 6h + 24h, dil. 100x (stocks: diclofenac 0.918, PTA 0.483, AgNO3 0.326 mg/mL)
  surviving fraction: 75.3 ± 6.4%
[5]; PANC-1, 6h + 24h, dil. 1000x (stocks: diclofenac 0.918, PTA 0.483, AgNO3 0.326 mg/mL)
  surviving fraction: 84.5 ± 9.8%
[5]; PANC-1, 24h + 24h, dil. 10 000x (stocks: diclofenac 0.918, PTA 0.483, AgNO3 0.326 mg/mL)
  surviving fraction: 89.5 ± 9.9%
[5]; PANC-1, 24h + 24h, dil. 100x (stocks: diclofenac 0.918, PTA 0.483, AgNO3 0.326 mg/mL)
  surviving fraction: 71.2 ± 6.5%
[5]; PANC-1, 24h + 24h, dil. 1000x (stocks: diclofenac 0.918, PTA 0.483, AgNO3 0.326 mg/mL)
  surviving fraction: 82.4 ± 7.7%
[5]; PANC-1, 72h + 24h, dil. 10 000x (stocks: diclofenac 0.918, PTA 0.483, AgNO3 0.326 mg/mL)
  surviving fraction: 89.4 ± 6.3%
[5]; PANC-1, 72h + 24h, dil. 100x (stocks: diclofenac 0.918, PTA 0.483, AgNO3 0.326 mg/mL)
  surviving fraction: 68.5 ± 6.9%
[5]; PANC-1, 72h + 24h, dil. 1000x (stocks: diclofenac 0.918, PTA 0.483, AgNO3 0.326 mg/mL)
  surviving fraction: 80.3 ± 4.1%
[6]; Du-145, 6h + 24h, dil. 10 000x (stocks: diclofenac 0.918, PTA 0.483, AgNO3 0.326 mg/mL)
  surviving fraction: 99.5 ± 8.2%
[6]; Du-145, 6h + 24h, dil. 100x (stocks: diclofenac 0.918, PTA 0.483, AgNO3 0.326 mg/mL)
  surviving fraction: 78.2 ± 5.6%
[6]; Du-145, 6h + 24h, dil. 1000x (stocks: diclofenac 0.918, PTA 0.483, AgNO3 0.326 mg/mL)
  surviving fraction: 87.7 ± 9.8%
[6]; Du-145, 24h + 24h, dil. 10 000x (stocks: diclofenac 0.918, PTA 0.483, AgNO3 0.326 mg/mL)
  surviving fraction: 99.5 ± 10.7%
[6]; Du-145, 24h + 24h, dil. 100x (stocks: diclofenac 0.918, PTA 0.483, AgNO3 0.326 mg/mL)
  surviving fraction: 78.7 ± 7.6%
[6]; Du-145, 24h + 24h, dil. 1000x (stocks: diclofenac 0.918, PTA 0.483, AgNO3 0.326 mg/mL)
  surviving fraction: 88.4 ± 6.7%
[6]; Du-145, 72h + 24h, dil. 10 000x (stocks: diclofenac 0.918, PTA 0.483, AgNO3 0.326 mg/mL)
  surviving fraction: 88.7 ± 6.1%
[6]; Du-145, 72h + 24h, dil. 100x (stocks: diclofenac 0.918, PTA 0.483, AgNO3 0.326 mg/mL)
  surviving fraction: 70.8 ± 7.9%
[6]; Du-145, 72h + 24h, dil. 1000x (stocks: diclofenac 0.918, PTA 0.483, AgNO3 0.326 mg/mL)
  surviving fraction: 71.4 ± 8.5%
[7]
  IC50: 699 ± 7.1 µM
[8]
  IC50: 977.3 ± 5.9 µM
[9]
  IC50: 978 ± 10.4 µM
[10]
  IC50: 1140 ± 18.3 µM
[11]
  IC50: 801 ± 124 µM
[12]
  IC50: 803 ± 14.7 µM
[13]
  cytotoxicity seen by AO/PI staining: did not induce visible cytotoxicity
[14]
  degradation of plasmid DNA: no degradation of DNA
